# Source: ChEMBL document CHEMBL1201862, “PubChem BioAssay data set” (2004)
#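 Method: 48-hour compound exposure of cells in 96-well plates, five concentrations, linear interpolation of endpoints. At the GI50, growth is halved.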 Active and inactive are the calls of the source. Cut-off read from the data, not from the text of the source: active = GI50 up to about 1.1 µM and inactive = higher.
# What was measured:
# Test in all cases: DTP human tumour cell line panel, 48 h
# SN12C = system: SN12C
# OVCAR-4 = system: OVCAR-4
# PC-3 = system: PC-3
# Malme-3M = system: Malme-3M
# SNB-19 = system: SNB-19
# MDA-MB-231 = system: MDA-MB-231
# K562 = system: K562
# MOLT-4 = system: MOLT-4
# HOP-62 = system: HOP-62
# A549 = system: A549
# SW-620 = system: SW-620
# NCI-H23 = system: NCI-H23
# NCI-H522 = system: NCI-H522
# RPMI-8226 = system: RPMI-8226
# HCT-15 = system: HCT-15
# RXF 393 = system: RXF 393
# EKVX = system: EKVX
# NCI-H226 = system: NCI-H226
# OVCAR-3 = system: OVCAR-3
# HCC 2998 = system: HCC 2998
Structure (SMILES),GI50 (SN12C),GI50 (OVCAR-4),GI50 (PC-3),GI50 (Malme-3M),GI50 (SNB-19),GI50 (MDA-MB-231),GI50 (K562),GI50 (MOLT-4),GI50 (HOP-62),GI50 (A549),GI50 (SW-620),GI50 (NCI-H23),GI50 (NCI-H522),GI50 (RPMI-8226),GI50 (HCT-15) [µM],GI50 (RXF 393),GI50 (EKVX),GI50 (NCI-H226),GI50 (OVCAR-3),GI50 (HCC 2998)
Cc1ccc(S(=O)(=O)NC(=O)N[C@@H](Cc2c[nH]cn2)C(=O)O)cc1,> 100 µM (inactive),> 100 µM (inactive),> 100 µM (inactive),> 100 µM (inactive),> 100 µM (inactive),> 100 µM (inactive),> 100 µM (inactive),> 100 µM (inactive),> 100 µM (inactive),> 100 µM (inactive),> 100 µM (inactive),> 100 µM (inactive),> 100 µM (inactive),37.3 µM (inactive),> 100,> 100 µM (inactive),,,,
CCC(CC)(CO)CNc1cc(Cl)nc(N)n1,> 100 µM (inactive),87.9 µM (inactive),> 100 µM (inactive),> 100 µM (inactive),,> 100 µM (inactive),> 100 µM (inactive),> 100 µM (inactive),> 100 µM (inactive),> 100 µM (inactive),> 100 µM (inactive),> 100 µM (inactive),> 100 µM (inactive),92.9 µM (inactive),> 100,67.1 µM (inactive),79.3 µM (inactive),77.1 µM (inactive),> 100 µM (inactive),
O=c1oc2ccc3ccccc3c2cc1-c1nnc(Nc2ccccc2)s1,50.8 µM (inactive),20 µM (inactive),17.1 µM (inactive),,38.4 µM (inactive),18.2 µM (inactive),51.5 µM (inactive),0.757 µM (active),,31.4 µM (inactive),,31 µM (inactive),0.986 µM (active),20.1 µM (inactive),51.6,15.8 µM (inactive),46.5 µM (inactive),,17.4 µM (inactive),44.8 µM (inactive)
CCC1=CCC23C(=O)C=CC(=O)C2(C1)C(=O)c1cccc(OC)c1C3=O (stereo not drawn),18.3 µM (inactive),12.7 µM (inactive),14.9 µM (inactive),15.9 µM (inactive),23.8 µM (inactive),15.1 µM (inactive),12.9 µM (inactive),3.87 µM (inactive),22.7 µM (inactive),23.8 µM (inactive),15.5 µM (inactive),21.1 µM (inactive),31.8 µM (inactive),4.41 µM (inactive),18,6.38 µM (inactive),13.2 µM (inactive),22.1 µM (inactive),10.1 µM (inactive),
O=C(N/N=C/c1ccc([N+](=O)[O-])o1)c1ccc(C(=O)N/N=C/c2ccc([N+](=O)[O-])o2)cc1,42.8 µM (inactive),45 µM (inactive),64.7 µM (inactive),21.2 µM (inactive),51.4 µM (inactive),> 100 µM (inactive),34.4 µM (inactive),23.8 µM (inactive),47.8 µM (inactive),45.5 µM (inactive),22.4 µM (inactive),42.3 µM (inactive),48.3 µM (inactive),2.55 µM (inactive),29.8,36.6 µM (inactive),> 100 µM (inactive),> 100 µM (inactive),26.1 µM (inactive),
CN(Cc1cnc2nc(N)nc(N)c2n1)c1ccc(C(=O)NC(CCC(=O)NC(CC(P(=O)(O)O)P(=O)(O)O)C(=O)O)C(=O)O)cc1 (stereo not drawn),> 100 µM (inactive),> 100 µM (inactive),> 100 µM (inactive),> 100 µM (inactive),> 100 µM (inactive),> 100 µM (inactive),,> 100 µM (inactive),> 100 µM (inactive),> 100 µM (inactive),> 100 µM (inactive),> 100 µM (inactive),> 100 µM (inactive),,> 100,> 100 µM (inactive),> 100 µM (inactive),> 100 µM (inactive),> 100 µM (inactive),
COc1cc2c(cc1O)-c1c(cnn1-c1ccc([N+](=O)[O-])cc1)CCC2,2.86 µM (inactive),19.1 µM (inactive),10.8 µM (inactive),5.82 µM (inactive),27.7 µM (inactive),12 µM (inactive),32.9 µM (inactive),1.02 µM (active),21.9 µM (inactive),12.7 µM (inactive),23.3 µM (inactive),13.8 µM (inactive),11.6 µM (inactive),4.76 µM (inactive),14,50.8 µM (inactive),28.1 µM (inactive),15.7 µM (inactive),16.7 µM (inactive),
O=C(CC(Cl)=C(Cl)Cl)c1ccccc1,,17.5 µM (inactive),> 100 µM (inactive),31.8 µM (inactive),> 100 µM (inactive),34.8 µM (inactive),21.5 µM (inactive),12.3 µM (inactive),> 100 µM (inactive),> 100 µM (inactive),38.3 µM (inactive),81.1 µM (inactive),23.9 µM (inactive),18 µM (inactive),24.8,21.2 µM (inactive),,28.9 µM (inactive),27 µM (inactive),
CN(C)CCCN1c2ccccc2C(C)(C)c2ccccc21 [DIMETACRINE],14.4 µM (inactive),13.9 µM (inactive),13.7 µM (inactive),14.7 µM (inactive),15.5 µM (inactive),14.7 µM (inactive),13.3 µM (inactive),13.7 µM (inactive),14.8 µM (inactive),14.8 µM (inactive),21.2 µM (inactive),16.3 µM (inactive),14.8 µM (inactive),13.1 µM (inactive),16.3,12.9 µM (inactive),17.6 µM (inactive),15.6 µM (inactive),14 µM (inactive),
N=c1c2c(ncn1N)Oc1c(c(-c3ccccc3)nn1-c1ccccc1)C2c1ccc(Cl)cc1 (stereo not drawn),1.79 µM (inactive),1.56 µM (inactive),1.63 µM (inactive),1.61 µM (inactive),1.47 µM (inactive),2.63 µM (inactive),0.731 µM (active),0.895 µM (active),1.66 µM (inactive),1.82 µM (inactive),1.75 µM (inactive),1.87 µM (inactive),,2.35 µM (inactive),1.31,1.47 µM (inactive),1.82 µM (inactive),1.98 µM (inactive),1.56 µM (inactive),0.762 µM (active)
Nc1n[n+](CC(=O)c2ccccc2)c2sc(-c3ccccc3)nn12,> 100 µM (inactive),> 100 µM (inactive),73.8 µM (inactive),> 100 µM (inactive),> 100 µM (inactive),> 100 µM (inactive),82.4 µM (inactive),90.6 µM (inactive),> 100 µM (inactive),> 100 µM (inactive),36.8 µM (inactive),> 100 µM (inactive),95.5 µM (inactive),60 µM (inactive),75.2,> 100 µM (inactive),> 100 µM (inactive),> 100 µM (inactive),> 100 µM (inactive),
